US9078446B2, “Use of N-(tetrazol-4-yl)- or N-(triazol-3-yl)arylcarboxamides or their salts for controlling unwanted plants in areas of transgenic crop plants being tolerant to HPPD inhibitor herbicides” (BAYER INTELLECTUAL PROPERTY GMBH, priority 2011, dated 2015)

Legend:
Type in all cases: in vivo
[1] = test system: transgenic tobacco plants expressing HPPD from Kordia algicida FMP27; assay: Symptoms due to herbicide application on transgenic tobacco plants (damage classes 0-3); conditions: 25 g Al/ha, one week after application
Description: (§1) Genes coding for the selected HPPD were obtained from a member of the group of organisms consisting of Avena sativa, Pseudomonas fluorescens mutant G336W, Blepharisma japonicum and Kordia algicida and cloned into the binary vector pBin19 allowing the integration of DNA into the tobacco genome, under the control of the CaMV35S promoter. For the cloning procedures, see A2 above for Avena sativa, see B2 above for Pseudomonas fluorescens, mutant G336W, see PCT/EP2010/070567 (published as WO 2011/076882, Example 5; for Blepharisma japonicum (FMP37) and see PCT/EP2010/070575, Example 5 for Kordia algicida (FMP27). Between the sequence corresponding to the promoter and the sequence coding for the HPPD a DNA sequence coding for a transit peptide to the chloroplast was inserted, in order to add at the N-terminal extremity of the protein a target signal to allow the localization of the HPPD protein into the plant chloroplast.
(§2) Seeds harvested from TO transformants will be put on standard soil for germination. Three weeks later plantlets (T1) will be transferred to single pots and grown under standard cultivation conditions (PCT/EP2010/070575, published as WO 2011/076889). Two weeks later, plants were sprayed with several N-(tetrazol-4-yl)- or N-(triazol-3-yl)arylcarboxamides as defined above.
(§3) Tables F1 to F5: Evaluation of the Symptoms Observed Due to the Application of the Herbicides on Transgenic Tobacco Plants, Expressing the Mutant Pseudomonas fluorescens HPPD G336W, the Avena HPPD (AvHPPD), the HPPD from Kordia algicida FMP27 or the HPPD from Blepharisma japonicum (FMP37), Compared to Non-Tranformed Tobacco Plants (“Wt”).
(§4) The herbicides (with “g Al/ha” meaning “g active ingredient/ha”) were applied on 8 to 10 plants originated from 1 to 3 independent transgenic events per transgene.
(§5) The symptoms were evaluated and classified as following: • 3=Very strong damage • 2=Strong damage • 1=Light and transient damage • 0=No damage

[2] = test system: transgenic tobacco plants expressing HPPD from Blepharisma japonicum (FMP37); assay: as above; conditions: 25 g Al/ha, one week after application
Description: as §1, §2, §3, §4, §5

[3] = test system: transgenic tobacco plants expressing mutant Pseudomonas fluorescens HPPD G336W (PfHPPD-G336W); assay: as above; conditions: PfHPPD-G336W line 646; 25 g Al/ha; one week after application
Description: as §1, §2, §3, §4, §5

[4] = test system: transgenic tobacco plants expressing Avena HPPD (AvHPPD); assay: as above; conditions: 25 g Al/ha, one week after application
Description: as §1, §2, §3, §4, §5

[5] = test system: cotton plants expressing FMP 27 and FMP 37; assay: Tolerance to HPPD inhibitors of cotton plants expressing tolerant HPPD enzymes; conditions: T1 cotton plants; one week after application
Description: (§6) Genes coding for the selected HPPD were obtained from a member of the group of organisms consisting of Blepharisma japonicum and Kordia algicida and cloned into an appropriate binary vector allowing the integration of DNA into the cotton genome, under the control of the CaMV35S promoter. For the respective cloning procedures, see WO2011076882 (PCT/EP2010/070567), Example 11; for Blepharisma japonicum (FMP37) and WO2011076889 (PCT/EP2010/070575), Example 11 for Kordia algicida (FMP27).
Between the sequence corresponding to the promoter and the sequence coding for the HPPD a DNA sequence coding for a transit peptide to the chloroplast was inserted, in order to add at the N-terminal extremity of the protein a target signal to allow the localization of the HPPD protein into the plant chloroplast. Cotton transformation was achieved as described in Example 12 of WO2011076882 (PCT/EP2010/070567) for Blepharisma japonicum (FMP37) and WO2011076889 (PCT/EP2010/070575) for Kordia algicida (FMP27). Seeds from T0 events showing tolerance to tembotrione were harvested.
T1 Cotton seeds were transferred to single pots and grown under standard cultivation conditions, see WO2011076882 (PCT/EP2010/070567) for Blepharisma japonicum (FMP37) and WO2011076889 (PCT/EP2010/070575) for Kordia algicida (FMP27).
At least 4 weeks later, plants will be sprayed with several N-(tetrazol-4-yl)- or N-(triazol-3-yl)arylcarboxamides as defined above.

[6] = test system: soybean plants expressing Pseudomonas fluorescens G336W mutant, FMP 27 and FMP 37; assay: Tolerance to HPPD inhibitors of soybean plants expressing tolerant HPPD enzymes; conditions: T1 soybean plants; one week after application
Description: as §6, with “the soybean” for “the cotton”, “Example 9;” for “Example 11;”, “Example 9” for “Example 11”
Between the sequence corresponding to the promoter and the sequence coding for the HPPD a DNA sequence coding for a transit peptide to the chloroplast was inserted, in order to add at the N-terminal extremity of the protein a target signal to allow the localization of the HPPD protein into the plant chloroplast. By using the vectors “pFCO112” (Blepharisma japonicum, WO2011076882), pFCO116 (Korida algicida, WO2011076889), and pFCO117” (see Example B2, above), soybean transformation was achieved as described in Example 10 of WO2011076882 (PCT/EP2010/070567) for Blepharisma japonicum (FMP37) and WO2011076889 (PCT/EP2010/070575) for Kordia algicida (FMP27). Seeds from TO events showing tolerance to tembotrione were harvested.
T1 Soybean seeds were transferred to single pots and grown under standard cultivation conditions, see WO2011076882.
Two weeks later, plants will be sprayed with several N-(tetrazol-4-yl)- or N-(triazol-3-yl)arylcarboxamides as defined above.

[7] = test system: non-transformed tobacco plants (Wt); assay: Symptoms due to herbicide application on tobacco plants (damage classes 0-3); conditions: 25 g Al/ha, one week after application
Description: as §2, §3, §4, §5

[8] = test system: transgenic tobacco plants expressing tolerant HPPD enzymes; assay: Tolerance of tobacco plants expressing tolerant HPPD enzymes (all transgenes)
Description: as §1, §2, §3, §4, §5

CCn1nnnc1NC(=O)c1ccc(C(F)(F)F)c(S(C)(=O)=O)c1C [Compound 5-148]
number of plants with Damage 0 (No damage) ([1]; FMP27 line 733): 3 | number of plants with Damage 1 (Light and transient damage) ([1]; FMP27 line 733): 1 | number of plants with Damage 2 (Strong damage) ([1]; FMP27 line 733): 4 | number of plants with Damage 3 (Very strong damage) ([1]; FMP27 line 733): 2 | number of plants with Damage 0 (No damage) ([1]; FMP27 line 734): 4 | number of plants with Damage 1 (Light and transient damage) ([1]; FMP27 line 734): 2 | number of plants with Damage 2 (Strong damage) ([1]; FMP27 line 734): 0 | number of plants with Damage 3 (Very strong damage) ([1]; FMP27 line 734): 4 | number of plants with Damage 0 (No damage) ([1]; FMP27 line 735): 0 | number of plants with Damage 1 (Light and transient damage) ([1]; FMP27 line 735): 4 | number of plants with Damage 2 (Strong damage) ([1]; FMP27 line 735): 4 | number of plants with Damage 3 (Very strong damage) ([1]; FMP27 line 735): 2 | number of plants with Damage 0 (No damage) ([2]; FMP37 line 749): 2 | number of plants with Damage 1 (Light and transient damage) ([2]; FMP37 line 749): 3 | number of plants with Damage 2 (Strong damage) ([2]; FMP37 line 749): 2 | number of plants with Damage 3 (Very strong damage) ([2]; FMP37 line 749): 3 | number of plants with Damage 0 (No damage) ([2]; FMP37 line 754): 2 | number of plants with Damage 1 (Light and transient damage) ([2]; FMP37 line 754): 1 | number of plants with Damage 2 (Strong damage) ([2]; FMP37 line 754): 5 | number of plants with Damage 3 (Very strong damage) ([2]; FMP37 line 754): 2 | number of plants with Damage 0 (No damage) ([2]; FMP37 line 795): 1 | number of plants with Damage 1 (Light and transient damage) ([2]; FMP37 line 795): 0 | number of plants with Damage 2 (Strong damage) ([2]; FMP37 line 795): 6 | number of plants with Damage 3 (Very strong damage) ([2]; FMP37 line 795): 3 | number of plants with Damage 0 (No damage) [3]: 0 | number of plants with Damage 1 (Light and transient damage) [3]: 3 | number of plants with Damage 2 (Strong damage) [3]: 2 | number of plants with Damage 3 (Very strong damage) [3]: 4 | number of plants with Damage 0 (No damage) ([4]; AvHPPD line 656): 2 | number of plants with Damage 1 (Light and transient damage) ([4]; AvHPPD line 656): 1 | number of plants with Damage 2 (Strong damage) ([4]; AvHPPD line 656): 3 | number of plants with Damage 3 (Very strong damage) ([4]; AvHPPD line 656): 4 | number of plants with Damage 0 (No damage) ([4]; AvHPPD line 659): 3 | number of plants with Damage 1 (Light and transient damage) ([4]; AvHPPD line 659): 1 | number of plants with Damage 2 (Strong damage) ([4]; AvHPPD line 659): 0 | number of plants with Damage 3 (Very strong damage) ([4]; AvHPPD line 659): 6 | number of plants with Damage 0 (No damage) ([4]; AvHPPD line 699): 1 | number of plants with Damage 1 (Light and transient damage) ([4]; AvHPPD line 699): 1 | number of plants with Damage 2 (Strong damage) ([4]; AvHPPD line 699): 1 | number of plants with Damage 3 (Very strong damage) ([4]; AvHPPD line 699): 7 | tolerance of transgenic plants compared to the wild-type cotton plants [5]: superior tolerance | tolerance of transgenic plants compared to the wild-type soybean plants [6]: superior tolerance | number of plants with Damage 0 (No damage) [7]: 0 | number of plants with Damage 1 (Light and transient damage) [7]: 0 | number of plants with Damage 2 (Strong damage) [7]: 0 | number of plants with Damage 3 (Very strong damage) [7]: 10 | tolerance of the transgenic tobacco plants (symptoms due to application of the herbicide) ([8]; T1 plants sprayed, evaluated one week after application): good tolerance | sensitivity of transgenic tobacco plants compared to wild type (wt) plants ([8]; all tested independent lines, agronomically relevant dose): less sensitive
